The test system of test [1] is H3K27me3 mark in HeLa cells (EZH2). Kind of test: H3K27me3 Alpha Hela Assay (AlphaLISA). It is filed as cell-based. The conditions noted are these: HeLa cells, 72 hrs, read-out: EZH2 Cell H3K27me3 Alpha HeLa (EC50 K27me3). In short, it runs like this:
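HeLa cells (1,000/well) treated with ten 3-fold compound doses for 72 h at 37 °C; lysates extracted and H3K27me3 detected by AlphaLISA with anti-K27me3 acceptor beads, biotinylated anti-H3 (3 nM) and streptavidin donor beads. EC50 from DMSO-normalized dose-response curves; duplicate plate assessed viability.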

The target of a further test is PRC2 containing wt EZH2 (Homo sapiens (Human), UniProt Q15910). Kind of test: EZH2 biochemical assay (IC50), 3H-SAM incorporation into biotinylated H3 peptide. The following applies: 30 pM PRC2 containing wt EZH2, 3-5 h pre-incubation. In short, it runs like this:
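Activity was measured as ³H-methyl transfer to a biotinylated H3K27me1 peptide over 18-22 h at room temperature, with capture on streptavidin flash plates. The 30 pM wt-EZH2 PRC2 complex was first pre-incubated 3-5 h with compound, 450 nM SAM/450 nM ³H-SAM and 2 µM H3K27me3 activator (pH 8.5, 0.8% DMSO). Four-parameter fits gave IC50.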

SMILES strings stand for the structures. Read-outs that look alike come from different tables or passages of the source.

One may read the EC50 as the concentration at which the effect is half-maximal. Broadly, the IC50 is the midpoint of a concentration-inhibition curve.

Sequence of PRC2 containing wt EZH2 (Q15910 whole entry): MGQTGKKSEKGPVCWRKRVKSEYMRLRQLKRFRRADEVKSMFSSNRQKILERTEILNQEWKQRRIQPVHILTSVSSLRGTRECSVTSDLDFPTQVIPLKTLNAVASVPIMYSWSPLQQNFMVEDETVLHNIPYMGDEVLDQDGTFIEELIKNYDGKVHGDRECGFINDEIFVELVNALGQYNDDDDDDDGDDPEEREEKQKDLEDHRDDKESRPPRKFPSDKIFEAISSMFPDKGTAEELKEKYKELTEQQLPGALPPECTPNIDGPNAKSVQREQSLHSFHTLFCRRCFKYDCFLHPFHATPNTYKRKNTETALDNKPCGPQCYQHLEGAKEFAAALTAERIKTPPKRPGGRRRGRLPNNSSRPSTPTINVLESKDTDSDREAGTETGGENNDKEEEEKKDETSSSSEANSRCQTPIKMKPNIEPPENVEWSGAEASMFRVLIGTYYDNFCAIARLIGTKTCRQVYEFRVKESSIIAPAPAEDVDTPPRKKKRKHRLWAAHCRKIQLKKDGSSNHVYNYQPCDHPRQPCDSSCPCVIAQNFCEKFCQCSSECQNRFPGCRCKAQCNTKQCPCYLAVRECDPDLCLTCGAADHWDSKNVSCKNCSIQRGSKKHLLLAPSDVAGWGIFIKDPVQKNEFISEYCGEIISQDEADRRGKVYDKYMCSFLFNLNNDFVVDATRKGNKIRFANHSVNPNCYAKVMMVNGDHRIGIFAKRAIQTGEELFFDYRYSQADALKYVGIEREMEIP
Sequence of PRC2 containing wt EZH2 (O75530 whole entry partner): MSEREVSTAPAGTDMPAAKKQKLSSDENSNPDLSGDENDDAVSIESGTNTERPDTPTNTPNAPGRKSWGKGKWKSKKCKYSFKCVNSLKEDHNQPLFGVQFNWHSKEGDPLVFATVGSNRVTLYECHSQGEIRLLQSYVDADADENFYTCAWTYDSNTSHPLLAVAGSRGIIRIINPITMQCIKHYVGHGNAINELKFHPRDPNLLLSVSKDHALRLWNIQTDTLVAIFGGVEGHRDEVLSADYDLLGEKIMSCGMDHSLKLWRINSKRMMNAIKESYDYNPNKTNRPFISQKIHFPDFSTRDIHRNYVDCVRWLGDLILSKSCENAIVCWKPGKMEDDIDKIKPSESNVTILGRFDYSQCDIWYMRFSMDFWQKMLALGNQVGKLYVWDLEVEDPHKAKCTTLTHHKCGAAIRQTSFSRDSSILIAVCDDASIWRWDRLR
Sequence of PRC2 containing wt EZH2 (Q15022 whole entry partner): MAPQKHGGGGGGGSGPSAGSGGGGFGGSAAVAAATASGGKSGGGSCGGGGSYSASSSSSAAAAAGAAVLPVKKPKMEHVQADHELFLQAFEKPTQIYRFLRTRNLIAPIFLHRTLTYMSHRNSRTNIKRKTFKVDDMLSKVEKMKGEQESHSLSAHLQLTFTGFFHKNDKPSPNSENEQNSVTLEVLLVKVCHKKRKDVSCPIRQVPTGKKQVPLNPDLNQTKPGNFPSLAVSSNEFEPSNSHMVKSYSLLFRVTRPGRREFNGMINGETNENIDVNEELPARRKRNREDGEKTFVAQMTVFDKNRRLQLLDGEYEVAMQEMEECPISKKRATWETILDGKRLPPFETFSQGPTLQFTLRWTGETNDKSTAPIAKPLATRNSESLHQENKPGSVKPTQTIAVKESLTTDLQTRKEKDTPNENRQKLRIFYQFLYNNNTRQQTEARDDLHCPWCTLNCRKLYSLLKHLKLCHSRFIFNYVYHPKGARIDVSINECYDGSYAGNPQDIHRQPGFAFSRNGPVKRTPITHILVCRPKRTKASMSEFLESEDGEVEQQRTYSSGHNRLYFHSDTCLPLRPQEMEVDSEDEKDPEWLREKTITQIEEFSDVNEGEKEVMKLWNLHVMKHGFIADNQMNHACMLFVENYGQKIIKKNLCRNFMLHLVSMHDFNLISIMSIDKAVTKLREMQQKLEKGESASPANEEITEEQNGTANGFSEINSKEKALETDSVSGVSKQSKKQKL
Sequence of PRC2 containing wt EZH2 (Q09028 whole entry partner): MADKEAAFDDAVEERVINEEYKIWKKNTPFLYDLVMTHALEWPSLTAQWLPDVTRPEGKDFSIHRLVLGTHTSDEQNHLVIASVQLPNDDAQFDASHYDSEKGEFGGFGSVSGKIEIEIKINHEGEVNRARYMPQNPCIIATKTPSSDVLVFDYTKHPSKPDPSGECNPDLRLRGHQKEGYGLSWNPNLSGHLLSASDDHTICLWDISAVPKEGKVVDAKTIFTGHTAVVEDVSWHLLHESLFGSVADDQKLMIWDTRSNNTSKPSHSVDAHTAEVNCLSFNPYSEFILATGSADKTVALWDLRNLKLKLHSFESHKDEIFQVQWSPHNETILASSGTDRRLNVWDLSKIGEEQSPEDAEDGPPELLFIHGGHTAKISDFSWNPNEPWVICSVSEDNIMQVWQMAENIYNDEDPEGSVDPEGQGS
Sequence of PRC2 containing wt EZH2 (Q6ZN18 whole entry partner): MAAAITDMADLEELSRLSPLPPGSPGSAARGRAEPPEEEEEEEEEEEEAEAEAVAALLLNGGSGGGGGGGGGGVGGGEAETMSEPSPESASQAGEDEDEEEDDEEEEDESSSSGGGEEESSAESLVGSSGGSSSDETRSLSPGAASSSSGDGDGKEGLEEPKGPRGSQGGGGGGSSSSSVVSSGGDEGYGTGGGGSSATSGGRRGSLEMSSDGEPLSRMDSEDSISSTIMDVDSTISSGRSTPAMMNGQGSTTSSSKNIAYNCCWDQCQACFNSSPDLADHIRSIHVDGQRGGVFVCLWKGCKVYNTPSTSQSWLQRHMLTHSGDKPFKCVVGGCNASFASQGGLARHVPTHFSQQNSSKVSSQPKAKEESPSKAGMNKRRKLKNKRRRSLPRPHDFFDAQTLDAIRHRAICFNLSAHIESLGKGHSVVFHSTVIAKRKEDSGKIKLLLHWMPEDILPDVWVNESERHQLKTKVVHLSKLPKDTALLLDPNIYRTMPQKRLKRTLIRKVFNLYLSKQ

Consider `CSc1cc(C)[nH]c(=O)c1CNC(=O)c1c(C)n([C@H](C)C2CCC(N3CC(N(C)C)C3)CC2)c2ccccc12` (single isomer, unassigned) [148 (isomer 2)], for which, in test [1], the EC50 lay in the range of 10 to 100 nM. Further, the IC50 at PRC2 containing wt EZH2 (read-out: EZH2 (IC50)) was under 0.5 nM.
Turning to `CSc1cc(C)[nH]c(=O)c1CNC(=O)c1c(C)n([C@H](C)C2CCC(NC3(C)CCOC3)CC2)c2ccccc12` (single isomer, unassigned) [149 (isomer 1)], the EC50 in test [1] (Homo sapiens, HeLa, 72 h) was 10 to 100 nM. The IC50 at PRC2 containing wt EZH2 (read-out: EZH2 (IC50)) is under 0.5 nM.
With `CSc1cc(C)[nH]c(=O)c1CNC(=O)c1c(C)n([C@H](C)C2CCC(NC3(C)CCOC3)CC2)c2ccccc12` (single isomer, unassigned) [149 (isomer 2)], the concentration giving a half-maximal response (EC50) in test [1] fell in the range of 10 to 100 nM. Further, at PRC2 containing wt EZH2 (read-out: EZH2 (IC50)), the half-maximal inhibitory concentration (IC50) is under 0.5 nM.
For `CSc1cc(C)[nH]c(=O)c1CNC(=O)c1c(C)n([C@H](C)C2CCC(NC3(CF)COC3)CC2)c2ccccc12` (single isomer, unassigned) [154 (isomer 1)], the concentration for a half-maximal effect (EC50) in test [1] (Homo sapiens, HeLa, 72 h) was in the range of 10 to 100 nM. In addition, at PRC2 containing wt EZH2 (read-out: EZH2 (IC50)), the IC50 is under 0.5 nM.
Regarding `CSc1cc(C)[nH]c(=O)c1CNC(=O)c1c(C)n([C@H](C)C2CCC(NC3(CF)COC3)CC2)c2ccccc12` (single isomer, unassigned) [154 (isomer 2)], the half-maximal effective concentration (EC50) in test [1] was under 10 nM. Besides, the concentration for half-maximal inhibition (IC50) on PRC2 containing wt EZH2 (read-out: EZH2 (IC50)) is under 0.5 nM.
With `CSc1cc(C)[nH]c(=O)c1CNC(=O)c1c(C)n([C@H](C)C2CCC(NC3(CF)COC3)CC2)c2ncccc12` (single isomer, unassigned) [155 (isomer 1)], the concentration for a half-maximal effect (EC50) in test [1] (Homo sapiens, HeLa, 72 h) is under 10 nM. The IC50 at PRC2 containing wt EZH2 (read-out: EZH2 (IC50)) is under 0.5 nM.
`CSc1cc(C)[nH]c(=O)c1CNC(=O)c1c(C)n([C@H](C)C2CCC(NC3(CF)COC3)CC2)c2ncccc12` (single isomer, unassigned) [155 (isomer 2)]: in test [1], the EC50 is 10 to 100 nM. Moreover, the IC50 at PRC2 containing wt EZH2 (read-out: EZH2 (IC50)) lay in the range of 0.5 to 5 nM.
As for `CSc1cc(C)[nH]c(=O)c1CNC(=O)c1c(C)n([C@H](C)C2CCC(NC3(CF)COC3)CC2)c2ncncc12` (single isomer, unassigned) [156 (isomer 1)], in test [1] (Homo sapiens, HeLa, 72 h), the EC50 is under 10 nM. For the same compound, on PRC2 containing wt EZH2 (read-out: EZH2 (IC50)), the IC50 was under 0.5 nM.
In the case of `CSc1cc(C)[nH]c(=O)c1CNC(=O)c1c(C)n([C@H](C)C2CCC(NC3(CF)COC3)CC2)c2ncncc12` (single isomer, unassigned) [156 (isomer 2)], the EC50 in test [1] is 10 to 100 nM. In addition, the IC50 on PRC2 containing wt EZH2 (read-out: EZH2 (IC50)) was under 0.5 nM.
As to `CSc1cc(C)[nH]c(=O)c1CNC(=O)c1c(C)n([C@H](C)C2CCC(NC3(CO)COC3)CC2)c2cc(F)ccc12` (single isomer, unassigned) [159 (isomer 1)], the 50% effective concentration (EC50) in test [1] (Homo sapiens, HeLa, 72 h) was 10 to 100 nM. In addition, the 50% inhibitory concentration (IC50) at PRC2 containing wt EZH2 (read-out: EZH2 (IC50)) was under 0.5 nM.
For the compound `CSc1cc(C)[nH]c(=O)c1CNC(=O)c1c(C)n([C@H](C)C2CCC(NC3(CO)COC3)CC2)c2cc(F)ccc12` (single isomer, unassigned) [159 (isomer 2)], the 50% effective concentration (EC50) in test [1] lay in the range of 10 to 100 nM. For the same compound, at PRC2 containing wt EZH2 (read-out: EZH2 (IC50)), the IC50 is under 0.5 nM.
On to `CSc1cc(C)[nH]c(=O)c1CNC(=O)c1c(C)n([C@H](C)C2CCC(N3CC(S(C)(=O)=O)C3)CC2)c2ccccc12` (single isomer, unassigned) [162 (isomer 1)], for which the concentration for a half-maximal effect (EC50) in test [1] lay in the range of 10 to 100 nM. The IC50 on PRC2 containing wt EZH2 (read-out: EZH2 (IC50)) was under 0.5 nM.
In the case of `CSc1cc(C)[nH]c(=O)c1CNC(=O)c1c(C)n([C@H](C)C2CCC(N3CC(S(C)(=O)=O)C3)CC2)c2ccccc12` (single isomer, unassigned) [162 (isomer 2)], the EC50 in test [1] was over 100 nM. In addition, the concentration for half-maximal inhibition (IC50) on PRC2 containing wt EZH2 (read-out: EZH2 (IC50)) was 0.5 to 5 nM.
For the compound `CSc1cc(C)[nH]c(=O)c1CNC(=O)c1c(C)n([C@H](C)C2CCC(NC3(C(F)(F)F)COC3)CC2)c2ncccc12` (single isomer, unassigned) [163 (isomer 1)], the EC50 in test [1] (Homo sapiens, HeLa, 72 h) is under 10 nM. The IC50 at PRC2 containing wt EZH2 (read-out: EZH2 (IC50)) is under 0.5 nM.
Turning to `CSc1cc(C)[nH]c(=O)c1CNC(=O)c1c(C)n([C@H](C)C2CCC(NC3(C(F)(F)F)COC3)CC2)c2ncccc12` (single isomer, unassigned) [163 (isomer 2)], the EC50 in test [1] was 10 to 100 nM. For the same compound, the IC50 on PRC2 containing wt EZH2 (read-out: EZH2 (IC50)) lay in the range of 0.5 to 5 nM.
For the compound `CSc1cc(C)[nH]c(=O)c1CNC(=O)c1c(C)n([C@H](C)C2CCC(NC3(C(F)(F)F)COC3)CC2)c2ncncc12` (single isomer, unassigned) [164 (isomer 1)], the EC50 in test [1] (Homo sapiens, HeLa, 72 h) is under 10 nM. The IC50 on PRC2 containing wt EZH2 (read-out: EZH2 (IC50)) was under 0.5 nM.
In the case of `CSc1cc(C)[nH]c(=O)c1CNC(=O)c1c(C)n([C@H](C)C2CCC(NC3(C(F)(F)F)COC3)CC2)c2ncncc12` (single isomer, unassigned) [164 (isomer 2)], the EC50 in test [1] was in the range of 10 to 100 nM. In addition, the IC50 on PRC2 containing wt EZH2 (read-out: EZH2 (IC50)) lay in the range of 0.5 to 5 nM.
`CSc1cc(C)[nH]c(=O)c1CNC(=O)c1c(C)n([C@H](C)C2CCC(N3CC(OC4CC4)C3)CC2)c2ncccc12` (single isomer, unassigned) [Example 30]: in test [1] (Homo sapiens, HeLa, 72 h), the concentration giving a half-maximal response (EC50) is under 10 nM. Also, at PRC2 containing wt EZH2 (read-out: EZH2 (IC50)), the 50% inhibitory concentration (IC50) was under 0.5 nM.
In the same order, the values of `CSc1cc(C)[nH]c(=O)c1CNC(=O)c1c(C)n([C@H](C)C2CCC(NC3(C(F)(F)F)COC3)CC2)c2ccccc12` (single isomer, unassigned) [Example 130] are under 10 nM and under 0.5 nM.
Consider `CSc1cc(C)[nH]c(=O)c1CNC(=O)c1c(C)n([C@H](C)[C@H]2OC[C@@H](N3CCC34COC4)CO2)c2ccccc12` (single isomer, unassigned; isomer 1) [150 (isomer 1)], for which, in test [1], the EC50 was over 100 nM. In addition, the 50% inhibitory concentration (IC50) on PRC2 containing wt EZH2 (read-out: EZH2 (IC50)) lay within 0.5 to 5 nM.
For the compound `CSc1cc(C)[nH]c(=O)c1CNC(=O)c1c(C)n([C@@H](C)[C@H]2OC[C@@H](N3CCC34COC4)CO2)c2ccccc12` (single isomer, unassigned; isomer 1) [151 (isomer 1)], the concentration for a half-maximal effect (EC50) in test [1] is over 100 nM. The IC50 at PRC2 containing wt EZH2 (read-out: EZH2 (IC50)) was 0.5 to 5 nM.
In the same order, the values of `CSc1cc(C)[nH]c(=O)c1CNC(=O)c1c(C)n([C@H](C)[C@H]2OC[C@H](N3CCC34COC4)CO2)c2ccccc12` (single isomer, unassigned; isomer 2) [150 (isomer 2)] are under 10 nM and under 0.5 nM.
Consider `CSc1cc(C)[nH]c(=O)c1CNC(=O)c1c(C)n([C@@H](C)[C@H]2OC[C@H](N3CCC34COC4)CO2)c2ccccc12` (single isomer, unassigned; isomer 2) [151 (isomer 2)], for which, in test [1], the EC50 was over 100 nM. Besides, on PRC2 containing wt EZH2 (read-out: EZH2 (IC50)), the half-maximal inhibitory concentration (IC50) is over 5 nM.
Regarding `CSc1cc(C)[nH]c(=O)c1CNC(=O)c1c(C)n([C@H](C)C23CC(NC4COC4)(C2)C3)c2ccccc12` [Example 8, (R)-2-methyl-N-((6-methyl-4-(methylthio)-2-oxo-1,2-dihydropyridin-3-yl)methyl)-1-(1-(3-(oxetan-3-ylamino)bicyclo[1.1.1]pentan-1-yl)ethyl)-1H-indole-3-carboxamide], in test [1] (Homo sapiens, HeLa, 72 h), the EC50 is under 10 nM. Further, the IC50 on PRC2 containing wt EZH2 (read-out: EZH2 (IC50)) was under 0.5 nM.
For `CSc1cc(C)[nH]c(=O)c1CNC(=O)c1c(C)n([C@H](C)C23CC(N(C)C4COC4)(C2)C3)c2ccccc12` [Example 9, (R)-2-methyl-1-(1-(3-(methyl(oxetan-3-yl)amino)bicyclo[1.1.1]pentan-1-yl)ethyl)-N-((6-methyl-4-(methylthio)-2-oxo-1,2-dihydropyridin-3-yl)methyl)-1H-indole-3-carboxamide], in test [1] (Homo sapiens, HeLa, 72 h), the concentration for a half-maximal effect (EC50) is under 10 nM. For the same compound, the IC50 at PRC2 containing wt EZH2 (read-out: EZH2 (IC50)) is under 0.5 nM.
Turning to `CSc1cc(C)[nH]c(=O)c1CNC(=O)c1c(C)n([C@H](C)C23CC(N(C)CC(F)(F)F)(C2)C3)c2ccccc12` [Example 10, (R)-2-methyl-1-(1-(3-(methyl(2,2,2-trifluoroethyl)amino)bicyclo[1.1.1]pentan-1-yl)ethyl)-N-((6-methyl-4-(methylthio)-2-oxo-1,2-dihydropyridin-3-yl)methyl)-1H-indole-3-carboxamide], in test [1] (Homo sapiens, HeLa, 72 h), the EC50 is under 10 nM. Besides, on PRC2 containing wt EZH2 (read-out: EZH2 (IC50)), the IC50 is under 0.5 nM.
For the compound `CSc1cc(C)[nH]c(=O)c1CNC(=O)c1c(C)n([C@H](C)C2CCN(CC(C)(C)O)CC2)c2ccccc12` [Example 11, (R)-1-(1-(1-(2-hydroxy-2-methylpropyl)piperidin-4-yl)ethyl)-2-methyl-N-((6-methyl-4-(methylthio)-2-oxo-1,2-dihydropyridin-3-yl)methyl)-1H-indole-3-carboxamide], the EC50 in test [1] (Homo sapiens, HeLa, 72 h) is 10 to 100 nM. The compound also gave an IC50 against PRC2 containing wt EZH2 (EZH2 (IC50)) of under 0.5 nM.
Consider `CSc1cc(C)[nH]c(=O)c1CNC(=O)c1c(C)n([C@H](C)C2CCN(CC(F)(F)F)CC2)c2ccccc12` [Example 12, (R)-2-methyl-N-((6-methyl-4-(methylthio)-2-oxo-1,2-dihydropyridin-3-yl)methyl)-1-(1-(1-(2,2,2-trifluoroethyl)piperidin-4-yl)ethyl)-1H-indole-3-carboxamide], for which the EC50 in test [1] (Homo sapiens, HeLa, 72 h) was under 10 nM. At PRC2 containing wt EZH2 (EZH2 (IC50)), this compound returned an IC50 of under 0.5 nM.
Take `CSc1cc(C)[nH]c(=O)c1CNC(=O)c1c(C)n([C@H](C)C2CCOCC2)c2ccccc12` [Example 13, (R)-2-methyl-N-((6-methyl-4-(methylthio)-2-oxo-1,2-dihydropyridin-3-yl)methyl)-1-(1-(tetrahydro-2H-pyran-4-yl)ethyl)-1H-indole-3-carboxamide]: the EC50 in test [1] (Homo sapiens, HeLa, 72 h) was under 10 nM. Also, on PRC2 containing wt EZH2 (EZH2 (IC50)), the IC50 is under 0.5 nM.
Consider `CNC1COC([C@@H](C)n2c(C)c(C(=O)NCc3c(SC)cc(C)[nH]c3=O)c3ccccc32)OC1` (stereo partly drawn) [Example 17, (R)-2-methyl-N-((6-methyl-4-(methylthio)-2-oxo-1,2-dihydropyridin-3-yl)methyl)-1-(1-(5-(methylamino)-1,3-dioxan-2-yl)ethyl)-1H-indole-3-carboxamide], for which the EC50 in test [1] (Homo sapiens, HeLa, 72 h) was under 10 nM. Further, the IC50 on PRC2 containing wt EZH2 (read-out: EZH2 (IC50)) was under 0.5 nM.
